Reference: US20220273658A1, “SMALL MOLECULE LIVER X RECEPTOR MODULATORS AND USES THEREOF” (University of Houston System, priority 2019, published 2022)

How the values were obtained:
PDAC cell lines = assay: tetrazolium salt reduction (WST) assay in PDAC cell lines; assay type: cell-based, human; conditions: WST screen, three human pancreatic cancer cell lines
Description: To determine the effects of LXR ligands on PDAC cell proliferation, cells were treated with synthetic LXR agonist GW3965 and live cells were quantified using trypan blue exclusion assays. […] FIGS. 8A, 8B, and 8C show dose-dependent decreases in cell proliferation in BxPC-3, Mia-PaCa-2, and PANC-1, respectively upon treatment with increasing GW3965 concentrations. […] Clonogenic assays were also employed to evaluate the effects of long-term LXR ligand treatment on cell proliferation and colony formation. […] These findings indicate that LXRs are involved in PDAC cell proliferation and targeting LXRs with ligands perturb their normal functions in cell proliferation.
The initial identification and subsequent characterization of the two novel LXR ligands and their derivative compounds was carried out in screens in three human pancreatic cancer cell and one non-transformed human pancreatic epithelial cell line in three or more replicate experiments for each cell line using the WST tetrazolium salt reduction assays.

human PDAC cell lines = assay: cell viability response curves with increasing concentrations; assay type: cell-based
MCF-7 = assay: expression of LXR target genes in breast cancer cells; assay type: cell-based; conditions: MCF-7, ER-positive
Excerpt: (§1) The inhibitory effects of LXR ligands in breast cancer cells have been shown previously. […] The observed decreases in LXR protein levels were not affected by proteasome inhibitor MG132.

MDA-MB-231 = assay: as above; assay type: cell-based; conditions: MDA-MB-231, triple-negative
Excerpt: as §1

MDA-MB-231 cells = assay: breast cancer cell proliferation; assay type: cell-based
Excerpt: as §1

LXR in MDA-MB-231 cells = assay: western blot of LXR protein levels; assay type: cell-based
Excerpt: as §1

[1] = test system: LXR proteins in MCF-7 cells; assay: western blot of LXR protein levels; assay type: cell-based
Excerpt: as §1

[2] = test system: LXR target genes SREBF1c, ABCA1, and ABCG1; assay: expression of LXR target genes in pancreatic cancer cell lines; assay type: cell-based, human
Excerpt: To characterize the activity of the newly discovered ligands, the expression of LXR target genes SREBF1c, ABCA1, and ABCG1 was examined following treatment with vehicle, synthetic agonist GW3965, and Compounds 1E5 and 3A4. […] Basal expression of SREBF1c, the canonical LXR target gene involved in the regulation of glucose and lipid metabolism, was disrupted by the addition of novel LXR ligands, whereas their expression was induced following treatment with synthetic agonist GW3965 in all three pancreatic cancer cell lines tested, whereas the effects on ABCA1 and ABCG1 varied between the two novel ligands and across the cell lines.
To elucidate mechanisms of inverse agonism by the novel ligands, TR-FRET experiments were conducted to determine the effects of 1E5 and 3A4 on the recruitment of NR co-activators and co-repressors. […] In addition to their functions as inverse agonists, extended treatments with 1E5 and 3A4 also destabilized or decreased LXR proteins.

## O=c1cc(-c2ccccc2)nc(Nc2cccc(C(F)(F)F)c2)[nH]1 [Compound 1E5, 6-phenyl-2-{[3-(trifluoromethyl)phenyl]amino}-3,4-dihydropyrimidin-4-one]
PDAC cell lines
  human pancreatic cancer cells growth: effective in inhibiting human pancreatic cancer cells growth
Human PDAC cell lines
  potency in response curves compared to GW3965: more potent activity as compared to GW3965
MCF-7
  expression of LXR target genes: generally down-regulated
MDA-MB-231
  expression of LXR target genes: generally down-regulated
MDA-MB-231 cells
  proliferation of MDA-MB-231 cells: inhibited
LXR in MDA-MB-231 cells
  LXR protein levels (degradation): degraded LXR
[1]
  LXR protein levels (degradation): act as degraders of LXR proteins
[2]; all three pancreatic cancer cell lines
  basal expression of SREBF1c: disrupted
[2]; pancreatic cancer cells
  expression of FASN, SCD, and ACC: decreased the expression
[2]; three pancreatic cancer cell lines
  expression of LXR target genes: reducing the expression of LXR target genes
